Assay results as given in PMC9227305, “Photoinduced Synthesis of Methylated Marine Cyclopeptide Galaxamide Analogs with Isoindolinone as Anticancer Agents” (Marine Drugs, 2022).
Like-named read-outs stand apart in the source and are kept apart here. *1 amine or outer side, *2 acyl side, *3 side chain or, on linkers, in order; H or OH if unused. Where a SMILES comes first, the peptide text is derived from it. [ ]: non-standard residue; d: D form. X1 = O=C1c2ccccc2[C@@](O)(CN(Cc2ccccc2)[*:1])N1CC(=O)[*:2]; NMeL = CN[C@@H](CC(C)C)C(=O)O

How the values were obtained:
[1] = tested on: HepG-2 cells; format: cell-based, human; conditions: 48 h; for Q4 cells (viable, lower left): human
Protocol: HepG-2 cells were treated with 0, 5.5, 11 and 22 µM of compound 8 and incubated for 48 h, then double-stained carefully by membrane-linked protein Annexin-V-fluorescein isothiocyanate (FITC) and propidium iodide (PI) for flow cytometry analysis. Generally, in the early stages of apoptosis, phosphatidylserine flips from the inner cell membrane to the surface of the cell membrane. […] Propidium iodide (PI) is a nucleic acid dye that can only cross the membrane of advanced apoptosis and necrotic cells, reddening the nucleus. Therefore, when the drug-treated cells are double-stained by the two fluorescent dyes, early and late apoptosis and necrotic cells can be clearly distinguished.
HepG-2 cells were seeded in a 6-well plate (2 × 10^5 cells per well). The different concentrations of compound 8 (0, 5.5, 11, 22 μg/mL) were added and incubated for 48 h to induce apoptosis. The collected cells were centrifuged (2000 r/min) for 5 min and resuspended in PBS (200 μL). Then, 5 μL of Annexin V-FITC was added and incubated for 10 min at room temperature away from light. Finally, 5 µL propidium iodide solution was added and incubated for 5 min away from light. The fluorescence intensity was detected by flow cytometry and analyzed by utilizing FlowJo_V10 software (FlowJo X 10.0.7r2, BD Biosciences, Franklin Lakes, NJ, USA).

[2] = tested on: MDM2; assay: Western blot of MDM2 level; format: cell-based, human; conditions: HepG-2 cells, 48 h, increasing drug concentration
Description: (§1) The p53 tumor suppressor plays a key role in preventing tumor development. In cancers retaining wild-type p53, the function of p53 can be suppressed by a variety of factors, and the murine double minute 2 (MDM2) protein is an important endogenous cellular inhibitor of p53 [29]. Therefore, inhibiting or blocking MDM2 protein should be an efficient strategy for the development of an antitumor agent. Actually, various MDM2 inhibitors have been studied and screened in recent years, including small molecules and polypeptides. […] Considering that the isoindolinone fragment is always present in the structure of MDM2 inhibitors and plays an important role in binding to the target protein, we tried to detect the MDM2 and p53 protein levels by Western blotting to assess the inhibiting ability of cyclic peptides containing isoindolinone fragments to MDM2 oncoprotein.
(§2) HepG-2 cells (5 × 10^6 cells) in the medium were treated with different concentrations of compounds for the required time and were washed twice with ice-cold PBS. The cells were scraped into cell lysate buffer containing phenylmethanesulfonyl fluoride (PMSF) and transferred to a 1.5 mL centrifuge tube, then lysed for 20 min at 4 °C. After centrifuging (12,000 r/min) for 20 min, the supernatant was collected and measured using the BCA Protein Assay Kit (Beyotime Biotechnology Co. Ltd., Shanghai, China)). […]

[3] = tested on: HepG-2 cells; assay: Mitochondrial membrane potential, rhodamine 123 flow cytometry; format: cell-based, human; conditions: control 44.9%
Protocol: A classical fluorescent dye, rhodamine 123, is selectively sequestered by active mitochondrial respiration, but is washed out in cells with decreased MMP, so that the dye fluorescence intensity reflects the level of mitochondrial activity and can be applied in the monitoring of MMP [23].
In this study, we have studied the change of MMP of HepG-2 cells after treatment with different concentrations (0, 5.5, 11 and 22 µM within 48 h) and different time periods (12, 24 and 48 h with 11 µM) of compound 8. Cells were stained with rhodamine 123 and analyzed by flow cytometry. […] The aforementioned analysis clearly discloses that the cyclic peptides can affect the mitochondrial membrane potential and induce apoptosis, consistent with the findings in cell cycle analysis.
Cells in the logarithmic phase were seeded in 6-well plates and incubated for 24 h. After refreshing the culture medium, different concentrations of compound 8 (0, 5.5, 11, 22 μM) were added and co-incubated for 48 h. Meanwhile, the cells were also treated with 11 μM of compound 8 within different time periods (12 h, 24 h, 48 h). Then, the cells were collected by trypsin digestion and washed with phosphate-buffered solution. After centrifuging (1000 r/min) for 5 min, the obtained cell precipitate was suspended in PBS (100 µL); then, 100 µL of rhodamine 123 (1 µM) was added and incubated for 20 min. The cells were centrifuged, resuspended in 600 µL PBS, and analyzed by flow cytometry (maximum excitation wavelength 507 and maximum emission wavelength 529 nm). At least 10,000 events were counted in the experiment.

[4] = tested on: p53; assay: Western blot of p53 level; format: cell-based, human; conditions: HepG-2 cells, 48 h, increasing drug concentration
Description: as §1, §2

[5] = tested on: MDA-MB-231 cells; format: cell-based, human; conditions: 48 h
Description: (§3) The antitumor activity of the prepared cyclic peptides against human hepatocellular carcinoma cells (HepG-2), human cervical cancer cell lines (HeLa) and human breast cancer cells (MDA-MB-231) was examined by MMT assay, and the mouse fibroblast L929 cells were used as the model cells to evaluate the toxicity of cyclopeptides to normal cell lines. Due to the absence of an authentic standard, taxol was chosen as a control because it is a widely used chemotherapeutic drug for the treatment of various cancers, including liver cancer.
(§4) Samples were dissolved in DMSO and diluted into different concentrations ([…], 18.75, 25, 37.5, 50, 75, 100 and 250 μM) and stored at 4 °C. Cells in the logarithmic growth phase were digested with trypsin and then seeded in 96-well plates at a density of 2 × 10^4 cells/well in 100 μL of culture medium. The cells were treated with different concentrations of the tested compound, and a blank control group without the drug was also set up. Six wells were repeated for each dose. After 48 h of co-incubation, MTT solution (100 μL, 0.5 mg/mL) was added, followed by incubation for another 4 h. After discarding the supernatant, 100 μL of DMSO was added per well, and the absorbance (OD) values were measured at 490 nm using an enzyme marker. Cell viability was calculated by the formula: Cell viability (%) = As/Ab × 100% (where As is the absorbance value of the experimental group and Ab is the absorbance value of the blank group). The obtained data were processed using SPSS19 software to obtain IC50 values.

[6] = tested on: L929 cells; assay: cells; conditions: 48 h
Description: as §3, §4

[7] = tested on: HepG-2 cells; assay: cells; conditions: compound 8 vs compound 4
Description: as §3, §4

For `CC(C)C[C@@H]1NC(=O)CN2C(=O)c3ccccc3[C@@]2(O)CN(Cc2ccccc2)C(=O)[C@H](CC(C)C)NC(=O)[C@H](CC(C)C)N(C)C(=O)[C@H](CC(C)C)NC(=O)[C@H](CC(C)C)NC1=O` [Compound 8, 3-Hydroxy-isoindolinone-cyclo-Gly-Leu-N-Me-Leu-Leu-Leu-Leu] (cyclo(LL[NMeL]L[X1]L)), the “Q3 cells (apoptosis cells)” value ([1]; 22 μM) was 32.4%, the “Q4 cells (viable, lower left)” value ([1]; 5.5 µM) was 86.2% and the “Q4 cells (viable, lower left)” value ([1]; 11 µM) was 77.3%. The “Q4 cells (viable, lower left)” value ([1]; 22 µM) was 65.4%, the “level of MDM2” value [2] was “decreased gradually” and the “mean mitochondrial fluorescence intensity (rhodamine 123)” value ([3]; 5.5 µM, 48 h) was 27.1%. For the same compound, the “mean mitochondrial fluorescence intensity (rhodamine 123)” value ([3]; 11 µM, 12 h) was 29.4%, the “mean mitochondrial fluorescence intensity (rhodamine 123)” value ([3]; 11 µM, 24 h) was 24.3% and the “mean mitochondrial fluorescence intensity (rhodamine 123)” value ([3]; 11 µM, 48 h) was 20.2%. The “mean mitochondrial fluorescence intensity (rhodamine 123)” value ([3]; 22 µM, 48 h) was 14.3%, the p53 protein expression [4] was “increase” and the IC50 [5] was 41.7 ± 3.2 µM. For the same compound, the IC50 [6] was over 400 µM and the “antitumor activity relative to compound 4” value [7] was “eight times stronger”.
